Measured values published in patent US20260263401A1, “Topical composition and uses thereof” (UNIVERSIDADE DE COIMBRA, priority 2022, published 2026).

Key:
[1] = In vitro release testing (IVRT), Franz cells, cellulose membrane; format: in vitro ADME; conditions: n=6; for dose depletion: 6 h
Method: In an embodiment, release studies of the hydrogels were performed on static vertical Franz cells (PermeGear, Inc., USA), with a diffusion circular area of 0.636 cm^2 and a receptor compartment of 5 mL. For that, infinite dose conditions (1 g) of the formulations were applied in the upper compartment, separated from the receptor by a cellulose membrane (MWCO≈14 000 Da, flat width 33 mm, Sigma-Aldrich), previously hydrated in ultrapurified water for at least 30 min. Before the experiments, the system was equilibrated for a minimum of 30 min. The release medium was composed of phosphate buffer pH 5.5 (guaranteeing the maintenance of sink conditions) and continuously stirred at 600 rpm, at 37° C. A circulating water bath maintained the membrane surface temperature at 32° C. During the release studies, the donor compartment, as well as the receptor sampling arm, were carefully covered to avoid medium evaporation, as well as to conduct the experiments under occlusive conditions. At predetermined time points (0.25, 0.5, 0.75, 1, 2, 3, 4 and 6 h), 300 μl of the medium were withdrawn and immediately replenished with fresh medium. NAC and LYS were quantified by HPLC (High-performance liquid chromatography). Release studies were conducted considering n=6 samples.
In an embodiment, the cumulative amount of NAC and LYS released over time was calculated according to the equation:
[formula] • where Cn is the API (active pharmaceutical ingredient) concentration of the receptor medium at each sampling time, Ci is the API concentration of the ith sample, A the effective diffusion area (0.636 cm^2), and VO (5 mL) and Vi (300 μL) the volumes of the receptor compartment and the collected sample, respectively.
In an embodiment, the release rates were retrieved from the slope of the linear regression obtained by plotting the cumulative amount of API diffused per cm^2 as a function of the square root of time. Additionally, mass balance studies were performed to characterize the extent of dose depletion, according to the equation:
[formula] • where Qf reflects the average cumulative amount released at the end of the assay and Qi the initial amount of API placed on the membrane.
(§1) In an embodiment, NAC and LYS were quantified by reversed-phase high-pressure liquid chromatography (RP-HPLC), using a Shimadzu LC-2010HT chromatographic system, equipped with an LC-20AD quaternary pump, a SIL-20AHT autosampler, a CTO-10AS over and an SPD-M2OA photodiode array detector. […] Using an injection volume of 50 μL, NAC and LYS were determined at 200 and 215 nm and eluted at 5.4 and 2.2 min, respectively.

[2] = In vitro permeation studies (IVPT), Franz cells; format: in vitro ADME, human; conditions: formulated in the hydrogel, single application, up to 24 h, non-occlusive
From the text: In an embodiment, the same vertical diffusional system of IVRT studies was used to evaluate the potential in vitro penetration of the active molecules. Human surgical skin pieces (person, type 3 skin, arm tissue) were surgically removed at Central Lisbon University Hospital Centre, after the approval of the Bioethics Committee, and processed as described in (Miranda et al., 2020). Written informed consent was obtained from the participant (Process number 447/2017). One day before the experiments, frozen epidermal specimens were left to thaw at room temperate. Afterwards, the skin sheets, with the stratum corneum side facing up, were gently placed on glass flasks filled with ultrapurified water and left to stabilize overnight, at 4° C. […] NAC and LYS were quantified by RP-HPLC, as described in the section above. […]
as §1

Row | Structure (SMILES) | dose depletion [1] | Tlag (time-lagged values) [1] | quantity of the active molecules in the receptor compartment (penetration of stratum corneum of human skin) [2]
1 | NCCCC[C@H](N)C(=O)O [LYS, lysine] | roughly 17% | approximately 0 h | below the limit of quantification
2 | CC(=O)N[C@@H](CS)C(=O)O [NAC, n-acetyl cysteine] | roughly 17% | approximately 0 h | below the limit of quantification
